Measurements reported in US20130324522A1, “INSECT ODORANT RECEPTOR ANTAGONISTS” (THE ROCKEFELLER UNIVERSITY, priority 2010, published 2013).

Columns and labels:
Format in all cases: cell-based
[1] = molecular target: T1, serotonin receptor (5HT3) (Mus musculus, UniProt P23979); experiment: Ca2+-imaging of stable Flip-In T-Rex cell line 5HT3; settings: compound applied at 4 μM; read-out: Percent Inhibition 5HT3
T1 construct: Full-length cDNAs for mosquito (Anopheles gambiae) odorant receptor; expressed in transfected cells
T1 sequence (P23979 24-489): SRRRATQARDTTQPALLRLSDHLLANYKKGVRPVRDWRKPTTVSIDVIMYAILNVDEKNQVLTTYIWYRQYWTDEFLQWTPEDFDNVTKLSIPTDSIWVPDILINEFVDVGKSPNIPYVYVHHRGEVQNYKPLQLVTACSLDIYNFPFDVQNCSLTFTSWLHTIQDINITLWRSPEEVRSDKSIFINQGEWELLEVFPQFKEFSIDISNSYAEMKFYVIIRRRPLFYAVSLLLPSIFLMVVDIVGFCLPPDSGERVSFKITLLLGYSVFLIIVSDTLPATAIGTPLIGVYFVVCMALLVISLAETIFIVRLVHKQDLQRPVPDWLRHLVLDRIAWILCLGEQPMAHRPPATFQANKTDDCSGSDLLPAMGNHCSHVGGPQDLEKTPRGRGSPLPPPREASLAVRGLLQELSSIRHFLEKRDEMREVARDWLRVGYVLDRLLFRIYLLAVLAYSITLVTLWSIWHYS
How it was run: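 Flp-In T-REx stable lines (Drosophila Or47a/Or83b or mouse 5HT3), 10,000 cells/well cultured 2 days, induced with tetracycline 1 day before assay.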

OR28/OR7 = OR28/OR7 (Anopheles gambiae, UniProt A0A1S4GFY3+Q7QCC7); experiment: Ca2+-imaging of stable HEK293T cell line OR28/OR7; settings: for inhibition at 4 µM: HEK-293T, compound applied at 4 μM, read-out: Percent Inhibition OR28 OR7; for IC50: Table B, read-out: IC50 OR28
Chain of OR28/OR7 (A0A1S4GFY3 entry or part of it): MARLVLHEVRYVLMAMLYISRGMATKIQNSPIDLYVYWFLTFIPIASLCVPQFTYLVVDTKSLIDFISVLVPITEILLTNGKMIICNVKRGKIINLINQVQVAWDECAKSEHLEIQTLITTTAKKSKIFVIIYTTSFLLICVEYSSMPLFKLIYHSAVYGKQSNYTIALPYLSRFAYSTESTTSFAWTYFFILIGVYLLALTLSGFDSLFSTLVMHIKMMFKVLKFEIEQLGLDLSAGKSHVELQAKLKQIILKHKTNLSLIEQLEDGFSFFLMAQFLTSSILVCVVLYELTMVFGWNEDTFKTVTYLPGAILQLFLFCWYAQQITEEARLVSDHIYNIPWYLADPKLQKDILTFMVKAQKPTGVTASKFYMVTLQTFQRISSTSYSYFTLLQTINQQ
Chain of OR28/OR7 (Q7QCC7 whole entry): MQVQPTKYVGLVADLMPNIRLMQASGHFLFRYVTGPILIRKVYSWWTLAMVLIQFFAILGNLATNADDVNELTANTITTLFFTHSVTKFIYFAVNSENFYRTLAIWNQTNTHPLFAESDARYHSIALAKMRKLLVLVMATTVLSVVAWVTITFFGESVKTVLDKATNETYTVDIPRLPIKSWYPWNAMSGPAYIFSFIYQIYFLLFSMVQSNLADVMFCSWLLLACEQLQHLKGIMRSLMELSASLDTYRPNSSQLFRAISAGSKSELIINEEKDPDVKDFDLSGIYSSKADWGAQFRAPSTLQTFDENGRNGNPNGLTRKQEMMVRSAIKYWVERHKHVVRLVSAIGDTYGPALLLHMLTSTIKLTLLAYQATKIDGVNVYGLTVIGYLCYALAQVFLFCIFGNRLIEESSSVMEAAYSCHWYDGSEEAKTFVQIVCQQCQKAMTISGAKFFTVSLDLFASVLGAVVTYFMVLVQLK
How it was run: (§1)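 Odorant solutions were prepared in HBSS at 9× final, with test compounds transferred in from […] DMSO stocks. These mixtures were applied to dye-loaded HEK293T stable receptor lines, and calcium responses were recorded in real time.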

TRP channel (TRPM8) = molecular target: T2, TRP channel (TRPM8) (Mus musculus, UniProt Q8R4D5); experiment: Ca2+-imaging of stable HEK293T cell line TRPM8; settings: HEK-293T; compound applied at 4 μM; read-out: Percent Inhibition TRPM8
T2 construct: Full-length cDNAs for mosquito (Anopheles gambiae) odorant receptor (OR1, OR2, OR7, OR8, OR28), and fly (Drosophila melanogaster) odorant receptor (Or47a, Or83b), mouse TRP channel (TRPM8); expressed in transfected cells
T2 sequence (Q8R4D5 whole entry): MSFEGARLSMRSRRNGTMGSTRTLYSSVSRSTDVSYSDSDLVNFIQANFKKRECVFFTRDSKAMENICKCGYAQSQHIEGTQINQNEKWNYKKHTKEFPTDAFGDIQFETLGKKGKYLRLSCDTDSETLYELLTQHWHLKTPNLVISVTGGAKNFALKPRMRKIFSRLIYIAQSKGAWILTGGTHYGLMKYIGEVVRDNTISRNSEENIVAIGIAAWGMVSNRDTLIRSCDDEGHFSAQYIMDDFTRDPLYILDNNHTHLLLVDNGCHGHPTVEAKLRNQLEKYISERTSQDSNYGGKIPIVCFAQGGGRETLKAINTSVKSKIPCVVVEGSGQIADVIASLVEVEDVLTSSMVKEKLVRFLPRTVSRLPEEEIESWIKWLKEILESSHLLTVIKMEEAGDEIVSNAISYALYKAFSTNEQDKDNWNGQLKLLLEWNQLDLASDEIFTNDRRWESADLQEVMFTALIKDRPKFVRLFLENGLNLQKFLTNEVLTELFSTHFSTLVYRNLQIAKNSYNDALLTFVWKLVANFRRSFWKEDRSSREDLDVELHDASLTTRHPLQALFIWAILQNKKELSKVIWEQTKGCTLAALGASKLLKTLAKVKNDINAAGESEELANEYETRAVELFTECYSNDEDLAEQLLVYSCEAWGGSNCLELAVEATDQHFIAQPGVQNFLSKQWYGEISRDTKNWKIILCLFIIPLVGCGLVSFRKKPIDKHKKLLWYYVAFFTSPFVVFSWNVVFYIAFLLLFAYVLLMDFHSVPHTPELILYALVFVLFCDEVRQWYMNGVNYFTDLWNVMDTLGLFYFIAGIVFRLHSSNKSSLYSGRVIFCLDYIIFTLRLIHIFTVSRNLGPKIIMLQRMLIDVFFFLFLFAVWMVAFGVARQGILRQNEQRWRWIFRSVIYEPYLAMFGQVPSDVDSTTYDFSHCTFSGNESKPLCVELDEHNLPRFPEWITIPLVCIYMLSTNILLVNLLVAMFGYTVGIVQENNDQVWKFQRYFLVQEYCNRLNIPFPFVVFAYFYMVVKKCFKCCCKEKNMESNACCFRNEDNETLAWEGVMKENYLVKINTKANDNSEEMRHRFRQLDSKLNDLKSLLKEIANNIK
How it was run: as §1

OR8/OR7 = OR8/OR7 (Anopheles gambiae, UniProt Q7PUT5+Q7QCC7); experiment: Ca2+-imaging of stable HEK293T cell line OR8/OR7; settings: for inhibition at 4 µM: HEK-293T, compound applied at 4 μM, read-out: Percent Inhibition OR8 OR7
Chain of OR8/OR7 (Q7QCC7 whole entry): as the sequence (Q7QCC7 whole entry) above
Chain of OR8/OR7 (Q7PUT5 entry or part of it): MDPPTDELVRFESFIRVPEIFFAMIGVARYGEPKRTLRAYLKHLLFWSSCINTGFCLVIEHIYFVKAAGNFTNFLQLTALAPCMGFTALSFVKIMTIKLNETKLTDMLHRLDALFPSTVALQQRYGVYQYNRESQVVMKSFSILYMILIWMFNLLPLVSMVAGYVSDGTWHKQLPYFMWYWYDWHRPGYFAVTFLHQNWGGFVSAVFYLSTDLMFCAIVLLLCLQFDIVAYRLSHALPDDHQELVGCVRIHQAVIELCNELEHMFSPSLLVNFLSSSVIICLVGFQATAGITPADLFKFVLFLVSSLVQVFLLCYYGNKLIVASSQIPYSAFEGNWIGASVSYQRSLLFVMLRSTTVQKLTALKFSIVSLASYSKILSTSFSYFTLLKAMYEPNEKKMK
How it was run: as §1

SMILES	inhibition at 4 µM [1]	inhibition at 4 µM (OR28/OR7)	IC50 (OR28/OR7)	inhibition at 4 µM (TRP channel (TRPM8))	inhibition at 4 µM (OR8/OR7)	IC50 (OR8/OR7; Table B, read-out: IC50 OR8)
Cc1ccc(CN(Cc2ccc(F)cc2)C(=O)CN(C(=O)NC(C)(C)C)C2CC2)s1 [RU-0052360]	< 25%	> 75%	100 to 1000 nM	26 to 50%	51 to 74%	> 1000 nM
CN(C)c1nc(N(C)C)nc(N(C)C)n1 [RU-0000619]	26 to 50%	51 to 74%	< 100 nM	< 25%	26 to 50%	–
CCCCc1nc(CN2CCc3c([nH]c4ccccc34)C2c2cccc(OC)c2OC)c[nH]1 (stereo not shown) [RU-0031879]	< 25%	> 75%	< 100 nM	26 to 50%	26 to 50%	–
